One may read the Ki as a measure of affinity in units of concentration, obtained from inhibition or displacement. Higher therefore signals lower affinity.

The assay has as its target short 8-mer DNA zipper (Z1: ATGTCCAT) target interaction. As to the kind of experiment: nanoswitch-FRET dose response with blocking oligonucleotides. The following applies: 1 nM nanoswitches with Z1 target interaction. It is filed as binding. From the text:
DNA nanoswitches were created as previously described (Koussa et al. 2015, Hansen et al. 2017). Briefly, circular ssDNA from the 7,249-nt bacteriophage M13 (New England BioLabs) was linearized by enzymatic cleavage of a single site using BtscI (New England BioLabs) and a site-specific oligonucleotide. This ssDNA scaffold was mixed with a molar excess of tiling 60-mer oligonucleotides (10:1), excluding the complementary regions for detection oligonucleotide and target interaction partners, and subjected to a temperature ramp from 90 to 20° C. at 1° C.−min-1. The detection oligonucleotides were added at 55° C. during the hybridization protocol. […]
The FRET from nanoswitches was quantified using a BioTek Neo plate reader. Specifically, the FRET emission was measured at 665 nm from […] and the non-FRET emission at 555 nm from […] using the built in monochromator-based system. The FRET ratio was then calculated as the ratio of the signal at 665 nm over 555 nm. For nanoswitch concentrations 2 nM and above, to reduce background, excitation at 540 nm was used instead and the FRET emission was measured at 680 nm.
FRET was measured in the presence of increasing concentrations of 7-mer (TGGACAT) or 8-mer ([…]) blocking oligonucleotides that bind to one side of the zipper. […]

For the setting “95% CI by bootstrapping (1.2 μM, 3.8 μM)”, TGGACAT [7-mer] yielded a Ki of 2000 nM.
ATGGACAT [8-mer] came in with a Ki (95% CI by bootstrapping (150 nM, 430 nM)) of 260 nM.

The record behind these values is US20230407374A1, “SYSTEMS AND METHODS FOR HIGH THROUGHPUT SCREENING OF MOLECULAR INTERACTIONS” (priority 2020, published 2023).
